Test results taken from patent publication US20250134848A1, “METHOD OF ADMINISTRATION OF […] THE INDUCTION OF TUMOR ASSOCIATED ANTIGENS” (BryoLogyx Inc., priority 2022, published 2025).

Experiments:
CD19 = CD19 expression in human PBMC, antibody binding capacity by flow cytometry; type: cell-based; conditions: FIG. 1
Protocol: (§1) The ability of bryostatin-1 to promote antigen expression was evaluated in vitro. Human peripheral blood mononuclear cells (PBMC) were cultured according to previously published methods (Ramakrishna et al., 2019). Briefly, cells were washed and then treated with either bryostatin-1 (1 nM) or DMSO (vehicle control) for different times as indicated, ranging from 45 min to 24 hrs. Antibody binding capacity (ABC) was measured by flow cytometry (NCI flow lab); and plotted (FIGS. 1 and 2), either directly or as fold change over DMSO/vehicle control.

CD22 [1] = experiment: CD22 expression in human PBMC, antibody binding capacity by flow cytometry; type: cell-based; conditions: FIG. 2
Protocol: as §1

CD19 and CD22 = experiment: Changes in expression of CD19 and CD22 in tumor cell lines and human cells after varying exposure times; type: cell-based
Protocol: We have shown that short exposure to bryostatin-1 in vitro is sufficient to elevate tumor-associated antigen expression. In experiments performed on numerous tumor cell lines and human cells, bryostatin-1 was administered for varying periods of time, ranging from 45 min to 24 hrs, and changes in the expression of CD19 and CD22 were measured. […] This elevation took time to become evident and was maximal at 72 h.

antigen expression = conditions: FIGS. 3A and 3B; Ramakrishna et al. 2019; cited from earlier work
[2] = system: tumor associated antigen expression; conditions: animal experiments; cited from earlier work
CD22 [3] = conditions: B-cell tumors such as ALL and CLL; cited from earlier work
[4] = 1 nM, 45 min vs 3 hrs or 24 hrs
[5] = bryostatin-1 1 nM for 45 min, 3 hrs or 24 hrs

CCC/C=C/C=C/C(=O)O[C@H]1/C(=C/C(=O)OC)C[C@H]2C[C@H]([C@@H](C)O)OC(=O)C[C@H](O)C[C@@H]3C[C@H](OC(C)=O)C(C)(C)[C@](O)(C[C@@H]4C/C(=C/C(=O)OC)C[C@H](/C=C/C(C)(C)[C@]1(O)O2)O4)O3 [bryostatin-1]
elevation of CD19 after 45 min incubation compared with longer incubations (CD19; [4]): same elevation in antigens as longer incubations | expression of CD19 (CD19; [5]): increases in expression of CD19 | elevation of CD22 after 45 min incubation compared with longer incubations (CD22 [1]; [4]): same elevation in antigens as longer incubations | expression of CD22 (CD22 [1]; [5]): increases in expression of CD22 | time at which elevation of antigen expression was maximal (CD19 and CD22; exposure 45 min to 24 hrs): 72 h | increase in antigen expression after short exposure (45 min) compared with 3 h or 24 h exposure (CD19 and CD22; tumor cell lines and human cells, in vitro): same level of increase in antigen expression as 3 h or 24 h exposure | time for which the increase in antigen expression remains elevated (antigen expression): 7 days | tumor associated antigen expression after a single intraperitoneal administration [2]: able to induce an elevation of tumor associated antigen expression | cell-surface expression of CD22 (CD22 [3]): increase cell-surface expression of CD22
